Experimental data: ChEMBL document CHEMBL5620408, “Discovery of novel diarypyrimidine derivatives bearing six-membered non-aromatic heterocycles as potent HIV-1 NNRTIs with improved anti-resistance and drug-like profiles” (Eur J Med Chem, 2023)
Values belong to the compound of their own block, whether it stands above or below them. Activity calls are given as the source filed them. The calls are words filed in the database; no cut-off is given here.

Assays:
[1] = tested on: Human immunodeficiency virus 1; conditions: RES056, MT4
Description: (§1) Antiviral activity against HIV1 RES056 infected in MT-4 cells assessed as viral induced cytopathic effect by MTT assay

[2] = Selectivity index, ratio of CC50 for human MT4 cells to EC50 for antiviral activity against HIV IIIB
[3] = Cytotoxicity against human MT4 cells assessed as reduction in cell viability by MTT assay; format: toxicity, cell-based
[4] = tested on: Human immunodeficiency virus 1; assay: Antiviral activity against HIV1 NL4-3 infected in MT4 cells; format: functional, organism-based; conditions: Human immunodeficiency virus 1, NL4-3, MT4
[5] = tested on: Human immunodeficiency virus 1; assay: microbe, parasite or virus in culture; conditions: Human immunodeficiency virus 1, IIIB, MT4
Description: Antiviral activity against HIV1 IIIB infected in MT-4 cells assessed as viral induced cytopathic effect by MTT assay

[6] = target: Human immunodeficiency virus type 1 reverse transcriptase (Human immunodeficiency virus 1, UniProt Q72547); assay: Inhibition of wild type HIV-1 reverse transcriptase
MT4 = assay: Cytotoxicity against human MT4 cells; format: toxicity, cell-based
[7] = tested on: Human immunodeficiency virus 1; assay: Antiviral activity against HIV1 NL4-3 infected in MT4 cells at 25 ng/ml; format: functional, organism-based
[8] = tested on: Human immunodeficiency virus 1; assay: Potency index, ratio of nevirapine EC50 to test compound EC50 for antiviral activity against HIV1 harboring K103 N mutant; format: functional
[9] = tested on: Human immunodeficiency virus 1; assay: Potency index, ratio of (E)-3-[3,5-dimethyl-4-[2-[4-[(4-methylsulfonylpiperazin-1-yl)methyl]anilino]pyrimidin-4-yl]oxy-phenyl]prop-2-enenitrile EC50 to test compound EC50 for antiviral activity against HIV1 harboring F227L/V106A double mutant; format: functional
Cytochrome P450 2D6 = Cytochrome P450 2D6 (Homo sapiens, UniProt P10635); assay: Inhibition of CYP2D6 (unknown origin); format: ADME
Cytochrome P450 2D6, sequence (P10635 whole entry): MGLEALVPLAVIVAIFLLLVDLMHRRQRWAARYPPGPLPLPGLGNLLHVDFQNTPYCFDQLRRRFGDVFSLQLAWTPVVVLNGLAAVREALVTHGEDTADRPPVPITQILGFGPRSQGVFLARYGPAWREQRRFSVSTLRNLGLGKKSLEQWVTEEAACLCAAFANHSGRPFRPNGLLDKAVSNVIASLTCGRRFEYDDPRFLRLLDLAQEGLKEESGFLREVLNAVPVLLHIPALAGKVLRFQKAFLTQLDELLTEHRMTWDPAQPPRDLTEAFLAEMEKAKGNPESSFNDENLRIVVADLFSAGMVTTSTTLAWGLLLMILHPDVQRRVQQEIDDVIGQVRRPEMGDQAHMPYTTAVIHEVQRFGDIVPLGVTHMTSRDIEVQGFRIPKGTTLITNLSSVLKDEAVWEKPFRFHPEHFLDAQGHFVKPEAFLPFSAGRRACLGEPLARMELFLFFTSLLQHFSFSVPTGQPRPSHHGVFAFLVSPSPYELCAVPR

[10] = Clearance in Sprague-Dawley rat at 2 mg/kg, iv; format: ADME, organism-based; conditions: in vivo
[11] = tested on: Human immunodeficiency virus 1; assay: Potency index, ratio of efavirenz EC50 to test compound EC50 for antiviral activity against HIV1 IIIB; format: functional
[12] = AUCt in Sprague-Dawley rat at 2 mg/kg, iv; format: ADME, organism-based; conditions: in vivo
[13] = tested on: Human immunodeficiency virus 1; assay: Potency index, ratio of etravirine EC50 to test compound EC50 for antiviral activity against HIV1 harboring K103 N mutant; format: functional
[14] = Half life in Sprague-Dawley rat at 2 mg/kg, iv; format: ADME, organism-based; conditions: in vivo
[15] = tested on: Human immunodeficiency virus 1; assay: Potency index, ratio of efavirenz EC50 to test compound EC50 for antiviral activity against HIV1 harboring K103 N mutant; format: functional
[16] = Volume of distribution in Sprague-Dawley rat at 2 mg/kg, iv; format: ADME, organism-based; conditions: in vivo
[17] = tested on: Human immunodeficiency virus 1; assay: Antiviral activity against HIV1 harboring Y188L mutant infected in MT4 cells; format: functional, organism-based; conditions: Human immunodeficiency virus 1, MT4
[18] = Selectivity index, ratio of CC50 for human MT4 cells to EC50 for antiviral activity against HIV RES056
[19] = tested on: Human immunodeficiency virus 1; assay: Antiviral activity against HIV1 harboring Y181C mutant infected in MT4 cells; format: functional, organism-based; conditions: Human immunodeficiency virus 1, MT4
[20] = Cmax in Sprague-Dawley rat at 2 mg/kg, iv; format: ADME, organism-based; conditions: in vivo
[21] = tested on: Human immunodeficiency virus 1; assay: Potency index, ratio of (E)-3-[3,5-dimethyl-4-[2-[4-[(4-methylsulfonylpiperazin-1-yl)methyl]anilino]pyrimidin-4-yl]oxy-phenyl]prop-2-enenitrile EC50 to test compound EC50 for antiviral activity against HIV1 IIIB; format: functional
[22] = AUCinfinity in Sprague-Dawley rat at 2 mg/kg, iv; format: ADME, organism-based; conditions: in vivo
[23] = tested on: Human immunodeficiency virus 1; assay: Potency index, ratio of nevirapine EC50 to test compound EC50 for antiviral activity against HIV1 IIIB; format: functional
[24] = tested on: Human immunodeficiency virus 1; assay: Potency index, ratio of etravirine EC50 to test compound EC50 for antiviral activity against HIV1 harboring E138K mutant; format: functional
[25] = tested on: Human immunodeficiency virus 1; assay: microbe, parasite or virus in culture; conditions: Human immunodeficiency virus 1, RES056, MT4
Description: as §1

[26] = tested on: Human immunodeficiency virus 1; assay: Antiviral activity against HIV1 harboring F227L/V106A double mutant infected in MT4 cells; format: functional, organism-based; conditions: Human immunodeficiency virus 1, MT4
[27] = tested on: Human immunodeficiency virus 1; assay: Potency index, ratio of etravirine EC50 to test compound EC50 for antiviral activity against HIV1 IIIB; format: functional
[28] = tested on: Human immunodeficiency virus 1; assay: Antiviral activity against HIV1 harboring K103N mutant infected in MT4 cells; format: functional, organism-based; conditions: Human immunodeficiency virus 1, MT4
[29] = tested on: Human immunodeficiency virus 1; assay: Antiviral activity against HIV1 harboring L100I mutant infected in MT4 cells; format: functional, organism-based; conditions: Human immunodeficiency virus 1, MT4
[30] = tested on: Human immunodeficiency virus 1; assay: Potency index, ratio of efavirenz EC50 to test compound EC50 for antiviral activity against HIV1 harboring F227L/V106A double mutant; format: functional
[31] = tested on: Human immunodeficiency virus 1; assay: Potency index, ratio of (E)-3-[3,5-dimethyl-4-[2-[4-[(4-methylsulfonylpiperazin-1-yl)methyl]anilino]pyrimidin-4-yl]oxy-phenyl]prop-2-enenitrile EC50 to test compound EC50 for antiviral activity against HIV1 harboring K103 N mutant; format: functional
Cytochrome P450 2C9 = Cytochrome P450 2C9 (Homo sapiens, UniProt P11712); assay: Inhibition of CYP2C9 (unknown origin); format: ADME
Cytochrome P450 2C9, sequence (P11712 whole entry): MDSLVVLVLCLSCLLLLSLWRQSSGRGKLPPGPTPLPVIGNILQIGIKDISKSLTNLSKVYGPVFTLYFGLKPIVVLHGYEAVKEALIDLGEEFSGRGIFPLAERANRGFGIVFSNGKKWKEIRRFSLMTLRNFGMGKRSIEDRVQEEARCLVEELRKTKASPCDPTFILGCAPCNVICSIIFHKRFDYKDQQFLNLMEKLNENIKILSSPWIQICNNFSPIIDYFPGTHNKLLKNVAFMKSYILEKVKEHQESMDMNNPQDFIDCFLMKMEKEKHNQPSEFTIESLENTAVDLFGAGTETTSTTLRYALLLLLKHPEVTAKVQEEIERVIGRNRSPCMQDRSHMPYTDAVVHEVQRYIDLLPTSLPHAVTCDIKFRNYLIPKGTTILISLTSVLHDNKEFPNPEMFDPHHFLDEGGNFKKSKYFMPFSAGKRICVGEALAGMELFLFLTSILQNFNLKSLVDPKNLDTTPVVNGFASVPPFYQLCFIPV

Cytochrome P450 2C19 = Cytochrome P450 2C19 (Homo sapiens, UniProt P33261); assay: Inhibition of CYP2C19 (unknown origin); format: ADME
Cytochrome P450 2C19, sequence (P33261 whole entry): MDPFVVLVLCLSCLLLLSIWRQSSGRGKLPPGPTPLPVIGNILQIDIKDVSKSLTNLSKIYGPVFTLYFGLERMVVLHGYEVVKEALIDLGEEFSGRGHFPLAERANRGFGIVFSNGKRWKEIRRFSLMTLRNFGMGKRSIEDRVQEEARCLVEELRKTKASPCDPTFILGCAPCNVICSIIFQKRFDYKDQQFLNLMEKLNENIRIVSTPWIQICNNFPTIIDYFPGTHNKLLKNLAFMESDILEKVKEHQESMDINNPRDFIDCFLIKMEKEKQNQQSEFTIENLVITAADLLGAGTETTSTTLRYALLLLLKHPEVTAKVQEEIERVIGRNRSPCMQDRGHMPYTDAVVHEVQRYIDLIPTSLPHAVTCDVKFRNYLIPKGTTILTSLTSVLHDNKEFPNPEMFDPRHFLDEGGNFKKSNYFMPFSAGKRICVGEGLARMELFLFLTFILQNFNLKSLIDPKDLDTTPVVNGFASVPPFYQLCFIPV

[32] = tested on: Human immunodeficiency virus 1; assay: Antiviral activity against HIV1 harboring E138K mutant infected in MT4 cells; format: functional, organism-based; conditions: Human immunodeficiency virus 1, MT4
Cytochrome P450 3A4 = Cytochrome P450 3A4 (Homo sapiens, UniProt P08684); assay: Inhibition of CYP3A4 (unknown origin); format: ADME
Cytochrome P450 3A4, sequence (P08684 whole entry): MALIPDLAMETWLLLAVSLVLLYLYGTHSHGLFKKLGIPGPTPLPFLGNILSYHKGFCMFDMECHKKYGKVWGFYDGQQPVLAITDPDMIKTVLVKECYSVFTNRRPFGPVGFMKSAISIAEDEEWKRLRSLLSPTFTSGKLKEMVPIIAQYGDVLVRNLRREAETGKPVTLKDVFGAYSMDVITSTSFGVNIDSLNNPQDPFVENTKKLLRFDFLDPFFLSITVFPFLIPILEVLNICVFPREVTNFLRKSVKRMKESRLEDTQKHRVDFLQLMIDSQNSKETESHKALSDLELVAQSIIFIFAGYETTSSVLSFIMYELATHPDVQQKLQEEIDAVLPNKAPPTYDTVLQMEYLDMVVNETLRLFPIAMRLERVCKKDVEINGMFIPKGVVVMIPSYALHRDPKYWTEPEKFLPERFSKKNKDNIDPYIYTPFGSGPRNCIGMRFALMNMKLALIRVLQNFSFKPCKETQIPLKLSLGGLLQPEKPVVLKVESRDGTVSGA

[33] = tested on: Human immunodeficiency virus 1; assay: Potency index, ratio of zidovudine EC50 to test compound EC50 for antiviral activity against HIV1 IIIB; format: functional
Cytochrome P450 1A2 = target: T1, Cytochrome P450 1A2 (Homo sapiens, UniProt P05177); assay: Inhibition of CYP1A2 (unknown origin); format: ADME
T1 sequence (P05177 whole entry): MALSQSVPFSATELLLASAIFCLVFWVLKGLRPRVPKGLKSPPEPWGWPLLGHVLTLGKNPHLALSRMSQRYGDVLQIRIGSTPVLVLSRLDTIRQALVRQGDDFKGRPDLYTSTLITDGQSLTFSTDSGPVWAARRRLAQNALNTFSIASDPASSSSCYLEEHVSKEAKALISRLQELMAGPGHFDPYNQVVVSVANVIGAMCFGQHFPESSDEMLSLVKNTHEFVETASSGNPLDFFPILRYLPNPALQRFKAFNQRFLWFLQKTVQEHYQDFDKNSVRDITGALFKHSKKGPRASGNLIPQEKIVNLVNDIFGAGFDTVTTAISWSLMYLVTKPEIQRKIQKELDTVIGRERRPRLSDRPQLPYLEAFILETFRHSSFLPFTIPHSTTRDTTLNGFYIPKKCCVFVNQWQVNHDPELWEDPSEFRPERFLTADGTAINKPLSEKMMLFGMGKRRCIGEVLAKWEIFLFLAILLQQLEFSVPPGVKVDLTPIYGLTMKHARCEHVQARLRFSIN

EC50 [4]: 5.67 nM | EC50 [5]: 5 nM | IC50 [6]: 100 nM
SMILES: Cc1cc(/C=C/C#N)cc(C)c1Oc1ccnc(Nc2ccc(N3CCN(S(=O)(=O)C4CC4)CC3)c(F)c2)n1
Activity [1]: inactive | selectivity ratio [2]: 32100 | CC50 [3]: 170000 nM | Activity (MT4): Non-Toxic

SMILES: Cc1cc(C#N)cc(C)c1Oc1ccnc(Nc2ccc(C3CCN(S(=O)(=O)N(C)C)CC3)cc2)n1
Activity [7]: inactive | Activity (MT4): Non-Toxic

SMILES: Cc1cc(C#N)cc(C)c1Oc1ccnc(Nc2ccc(N3CCN(S(=O)(=O)C(C)C)CC3)cc2)n1
Activity [7]: inactive | Activity (MT4): Non-Toxic

SMILES: Cc1cc(C#N)cc(C)c1Oc1ccnc(Nc2ccc(C3CCN(S(=O)(=O)C(C)C)CC3)cc2)n1
Activity [7]: inactive | Activity (MT4): Non-Toxic

SMILES: Cc1cc(/C=C/C#N)cc(C)c1Oc1ccnc(Nc2ccc(N3CCS(=O)(=O)CC3)c(F)c2)n1
Ratio EC50 [8]: 5490 | Ratio EC50 [9]: 10 | IC50 (Cytochrome P450 2D6): 14800 nM | clearance [10]: 106 mL/min/kg | Ratio EC50 [11]: 3.7 | AUC(0-t) [12]: 297 ng·h/mL | Ratio EC50 [13]: 3.9 | half-life [14]: 6.59 h | Ratio EC50 [15]: 10.9 | Vd [16]: 60.1 L/kg | EC50 [17]: 1170 nM | selectivity ratio [18]: 86 | selectivity ratio [2]: 15500 | EC50 [19]: 8 nM | Cmax [20]: 390 ng/mL | Ratio EC50 [21]: 2.7 | AUC(0-inf) [22]: 316 ng·h/mL | CC50 [3]: 15800 nM | Ratio EC50 [23]: 190 | Ratio EC50 [24]: 3.1 | EC50 [25]: 180 nM | EC50 [26]: 24 nM | Ratio EC50 [27]: 3.3 | EC50 [28]: 1 nM | EC50 [29]: 5 nM | Ratio EC50 [30]: 10 | EC50 [5]: 1 nM | Ratio EC50 [31]: 3.4 | IC50 [6]: 23 nM | IC50 (Cytochrome P450 2C9): 5570 nM | IC50 (Cytochrome P450 2C19): 5280 nM | EC50 [32]: 6 nM | IC50 (Cytochrome P450 3A4): > 100000 nM | Ratio EC50 [33]: 32 | IC50 (Cytochrome P450 1A2): 21200 nM

SMILES: Cc1cc(C#N)cc(C)c1Oc1ccnc(Nc2ccc(N3CCN(S(=O)(=O)C4CC4)CC3)cc2)n1
Activity [7]: inactive | Activity (MT4): Non-Toxic

SMILES: CCS(=O)(=O)N1CCC(c2ccc(Nc3nccc(Oc4c(C)cc(C#N)cc4C)n3)cc2)CC1
Activity [7]: inactive | Activity (MT4): Non-Toxic

SMILES: Cc1cc(C#N)cc(C)c1Oc1ccnc(Nc2ccc(C3CCN(S(C)(=O)=O)CC3)cc2)n1
Activity [7]: inactive | Activity (MT4): Non-Toxic

SMILES: CCS(=O)(=O)N1CCN(c2ccc(Nc3nccc(Oc4c(C)cc(C#N)cc4C)n3)cc2)CC1
Activity [7]: inactive | Activity (MT4): Non-Toxic

SMILES: Cc1cc(C#N)cc(C)c1Oc1ccnc(Nc2ccc(N3CCN(S(=O)(=O)N(C)C)CC3)cc2)n1
Activity [7]: inactive | Activity (MT4): Non-Toxic

EC50 [25]: > 186000 nM | EC50 [5]: 18 nM | IC50 [6]: 150 nM
SMILES: Cc1cc(C#N)cc(C)c1Oc1ccnc(Nc2ccc(N3CCN(S(=O)(=O)N(C)C)CC3)c(F)c2)n1
selectivity ratio [2]: 10300 | CC50 [3]: 186000 nM | Activity [7]: inactive | Activity (MT4): Non-Toxic
